Experiment [1] deals with Staphylococcus aureus. Put plainly: Antibiofilm activity against 24 hrs preformed methicillin-resistant Staphylococcus aureus SAP0017 biofilm assessed as reduction in biofilm viability at 7.2 to 30.3 uM by TTC assay relative to control. The format is functional. Conditions: dose microM 7.2-30.3.
In experiment [2] the test system is Staphylococcus aureus. Briefly: Antibiofilm activity against 24 hrs preformed methicillin-resistant Staphylococcus aureus USA300 LAC biofilm assessed as reduction in biofilm viability at 7.2 to 30.3 uM by TTC assay relative to control. The format is functional. Conditions: dose microM 7.2-30.3.
In experiment [3] the test system is Staphylococcus aureus. Briefly: Antibiofilm activity against 24 hrs preformed methicillin-resistant Staphylococcus aureus SAP0017 biofilm assessed as reduction in biofilm viability at 100 ug/ml by TTC assay. Conditions: dose 100.0 µg/ml. The format is functional, organism-based.
Experiment [4] relates to Staphylococcus aureus. Briefly: Antibiofilm activity against 24 hrs preformed methicillin-resistant Staphylococcus aureus USA300 LAC biofilm assessed as reduction in biofilm viability at 100 ug/ml by TTC assay. Conditions: dose 100.0 µg/ml. The format is functional, organism-based.

The source made the active and inactive calls. The rule behind the calls is not given here. Where a SMILES comes first, the peptide text is derived from it. Bridges are numbered along the chain shown (N, C = ends).

For `CC[C@H](C)[C@@H]1NC(=O)[C@H](CCCNC(=N)N)NC(=O)[C@H](C(C)C)NC(=O)[C@H](C)NC(=O)[C@H](C(C)C)NC(=O)[C@H]([C@@H](C)CC)NC(=O)[C@H](CC(C)C)NC(=O)[C@H](CCCNC(=N)N)NC(=O)[C@H](C(C)C)NC(=O)CC[C@@H](C(N)=O)NC(=O)[C@H](CCCNC(=N)N)NC(=O)[C@H](CCCNC(=N)N)NC(=O)[C@H](Cc2c[nH]c3ccccc23)NC1=O` (VRLIVAVRIWRRE-NH2; lactam N-13), the Activity in the experiment with Staphylococcus aureus [1] and in the experiment with Staphylococcus aureus [2] was 70% in each case.
As to `CN[C@H](CC(C)C)C(=O)N[C@H]1C(=O)N[C@@H](CC(N)=O)C(=O)N[C@H]2C(=O)N[C@H]3C(=O)N[C@H](C(=O)N[C@H](C(=O)O)c4cc(O)cc(O)c4-c4cc3ccc4O)[C@H](O)c3ccc(c(Cl)c3)Oc3cc2cc(c3O[C@@H]2O[C@H](CO)[C@@H](O)[C@H](O)[C@H]2O[C@H]2C[C@](C)(N)[C@H](O)[C@H](C)O2)Oc2ccc(cc2Cl)[C@H]1O` [VANCOMYCIN], the outcome with Staphylococcus aureus [3] and with Staphylococcus aureus [4] was inactive.
Regarding H-VRLIVAVRIWRR-NH2, the Activity in the experiment with Staphylococcus aureus [1] and in the experiment with Staphylococcus aureus [2] was 70% in each case.

For the origin of these results see ChEMBL document CHEMBL4725351, “Cyclic Derivative of Host-Defense Peptide IDR-1018 Improves Proteolytic Stability, Suppresses Inflammation, and Enhances In Vivo Activity” (J Med Chem, 2020).
